Here are results for 21 compounds from patent publication US20240254129A1, “HETEROCYCLIC COMPOUNDS AND USES THEREOF” (Kumquat Biosciences Inc., priority 2021, published 2024).

Where two headings read alike, the source gives them in different places. Where only a bound is given, the exact number is not on record here.

Experiment [1] concerns the target GST-tagged K-Ras mutant / His-tagged hSOS1 (Homo sapiens, UniProt P01116). The experiment is described as follows: HTRF assay, K-Ras mutant / SOS1 interaction. It is filed as binding. Particulars: read-out: IC50 against mutant Kras. The procedure, abridged: (§1)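 HTRF read-out (ex 337, em 620 and 665 nm) of Ras–SOS1 equilibrium binding: Eu-anti-GST on GST-K-Ras, XL665-anti-6His on His-hSOS1. Incubation about 10 min or longer; IC50 fitted from emission ratio, compounds in duplicate at 10 μM down to 0.01 μM.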
On the technique in general: Time-resolved FRET reads energy transfer from a long-lived donor to a nearby acceptor.

A further experiment has as its target T1, wildtype Kras / hSOS1 (Homo sapiens, UniProt P01116).
T1 construct: made in house; host or cells: E. coli BL21 (DE3)
The experiment is described as follows: HTRF assay, wildtype Kras / SOS1 interaction. Particulars: read-out: IC50 against wildtype Kras. The class given is binding. In short, it runs like this:
as §1

Where [2] appears, read: compound nos. 102-196, general methodology of example 5.

T1 sequence (P01116 1-188 isoform P01116-2): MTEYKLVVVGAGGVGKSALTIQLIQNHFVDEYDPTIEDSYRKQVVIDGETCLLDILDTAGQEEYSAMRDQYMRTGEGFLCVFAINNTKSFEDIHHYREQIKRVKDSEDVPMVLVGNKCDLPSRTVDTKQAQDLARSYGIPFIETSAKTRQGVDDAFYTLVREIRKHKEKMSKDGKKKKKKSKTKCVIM
Chain of GST-tagged K-Ras mutant / His-tagged hSOS1 (P01116 whole entry G12D, form open): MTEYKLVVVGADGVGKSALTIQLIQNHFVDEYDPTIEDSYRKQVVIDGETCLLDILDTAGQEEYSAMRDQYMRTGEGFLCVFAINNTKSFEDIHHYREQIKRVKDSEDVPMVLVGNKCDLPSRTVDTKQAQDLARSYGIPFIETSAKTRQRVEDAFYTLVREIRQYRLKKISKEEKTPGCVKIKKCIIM

Broadly, the IC50 is the concentration that inhibits the measured activity by half. Consider `Nc1nc2c(-c3c(Cl)cc4c(N5CC6CCC(C5)N6)nc(OCC5(CN6CC[C@H](F)C6)CC5)nc4c3F)ccc(F)c2s1` [Compound 443, 4-(4-(3,8-diazabicyclo-[3.2.1]octan-3-yl)-6-chloro-8-fluoro-2-((1-(((S)-3-fluoropyrrolidin-1-yl)meth-yl)cyclopropyl)methoxy)-quinazolin-7-yl)-7-fluoro-benzo[d]thiazol-2-amine], for which the IC50 (in experiment [1] (compound nos. 401-703); on wildtype Kras / hSOS1 (compound nos. 401-703)) was less than 500 nM each time.
On to `Nc1ccc2cccc(-c3c(Cl)cc4c(N5CC6CCC(C5)N6)nc(OC[C@@]56CCCN5C[C@H](F)C6)nc4c3F)c2n1` [Compound 606, 8-(4-(3,8-diazabicyclo-[3.2.1]octan-3-yl)-6-chloro-8-fluoro-2-(((2R,7aS)-2-fluorotetrahydro-1H-pyrrol-izin-7a(5H)-yl)methoxy)-quinazolin-7-yl)quinolin-2-amine], for which the IC50 (in experiment [1] (compound nos. 401-703); at wildtype Kras / hSOS1 (compound nos. 401-703)) was more than 500 nM throughout.
Consider `CN1[C@@H]2CC[C@H]1CN(c1nc(OC[C@@]34CCCN3C[C@H](F)C4)nc3c(F)c(-c4ccc(F)c5sc(N)nc45)c(Cl)cc13)C2` [Compound 470, 4-(6-chloro-8-fluoro-2-(((2R,7aS)-2-fluorotetrahydro-1H-pyrrolizin-7a(5H)-yl)methoxy)-4-((1R,5S)-8-methyl-3,8-diazabicyclo[3.2.1]octan-3-yl)quinazolin-7-yl)-7-fluorobenzo[d]thiazol-2-amine], for which the IC50 (in experiment [1] (compound nos. 401-703); at wildtype Kras / hSOS1 (compound nos. 401-703)) was less than 500 nM each time.
For `CN1CCC[C@H]1COc1nc(N2CCCC(C(=O)O)CC2)c2cc(Cl)c(-c3cccc4sc(N)nc34)c(F)c2n1` (stereo partly drawn) [Compound 414, 1-(7-(2-aminobenzo[d]-thiazol-4-yl)-6-chloro-8-fluoro-2-(((S)-1-methyl-pyrrolidin-2-yl)methoxy)-quinazolin-4-yl)azepane-4-carboxylic acid], the IC50 in experiment [1] (compound nos. 401-703) is more than 500 nM; on wildtype Kras / hSOS1 (compound nos. 401-703), less than 500 nM.
On the same counts, the results for `Nc1nc2c(-c3c(Cl)cc4c(N5CC6CCC(C5)N6)nc(OCCCN5CCCC5)nc4c3F)ccc(F)c2s1` [Compound 457, 4-(4-(3,8-diazabicyclo-[3.2.1]octan-3-yl)-6-chloro-8-fluoro-2-(3-(pyrrolidin-1-yl)propoxy)quinazolin-7-yl)-7-fluorobenzo[d]thiazol-2-amine] are more than 500 nM and less than 500 nM.
On the same counts, the results for `Nc1nc2c(-c3c(Cl)cc4c(N5CCC6CCC(C5)N6)nc(OCC56CCCN5CCC6)nc4c3F)ccc(F)c2s1` (stereo not drawn) [Compound 494, 4-(4-(3,9-diazabicyclo-[4.2.1]nonan-3-yl)-6-chloro-8-fluoro-2-((tetrahydro-1H-pyrrolizin-7a(5H)-yl)meth-oxy)quinazolin-7-yl)-7-fluorobenzo[d]thiazol-2-amine] are less than 500 nM and less than 500 nM.
For the compound `Nc1nccc2c(-c3c(Cl)cc4c(N5CC6CCC(C5)N6)nc(OCC56CCCN5CCC6)nc4c3F)cccc12` [Compound 541, 5-(4-(3,8-diazabicyclo-[3.2.1]octan-3-yl)-6-chloro-8-fluoro-2-((tetrahydro-1H-pyrrolizin-7a(5H)-yl)meth-oxy)quinazolin-7-yl)iso-quinolin-1-amine], the IC50 (in experiment [1] (compound nos. 401-703); at wildtype Kras / hSOS1 (compound nos. 401-703)) was more than 500 nM each time.
On to `CN1CCC[C@H]1COc1nc(N2CCSCC(F)(F)C2)c2cc(Cl)c(-c3cccc4sc(N)nc34)c(F)c2n1` [Compound 136, 4-(6-chloro-4-(6,6-difluoro-1,4-thiazepan-4-yl)-8-fluoro-2-(((S)-1-methylpyrrolidin-2-yl)methoxy)quinazolin-7-yl)benzo[d]thiazol-2-amine], for which the IC50 (in experiment [1] (setting [2]); at wildtype Kras / hSOS1 (setting [2])) was less than 500 nM in each case.
`Nc1nc2c(-c3c(Cl)cc4c(N5CCNCC(F)(F)C5)nc(OCC56CCCN5CCC6)nc4c3F)ccc(F)c2s1` [Compound 109, 4-(6-chloro-4-(6,6-difluoro-1,4-diazepan-1-yl)-8-fluoro-2-((tetrahydro-1H-pyrrol-izin-7a(5H)-yl)methoxy)-quinazolin-7-yl)-7-fluoro-benzo[d]thiazol-2-amine]: the IC50 (in experiment [1] (setting [2]); at wildtype Kras / hSOS1 (setting [2])) was less than 500 nM each time.
Consider `Nc1nc2c(-c3c(Cl)cc4c(N5CCOCC(O)C5)nc(OCC56CCCN5C[C@H](F)C6)nc4c3F)ccc(F)c2s1` (stereo partly drawn) [Compound 160, 4-(7-(2-amino-7-fluoro-benzo[d]thiazol-4-yl)-6-chloro-8-fluoro-2-(((2R)-2-fluorotetrahydro-1H-pyrrol-izin-7a(5H)-yl)methoxy)-quinazolin-4-yl)-1,4-oxazepan-6-ol], for which the IC50 in experiment [1] (setting [2]) was more than 500 nM; on wildtype Kras / hSOS1 (setting [2]), less than 500 nM.
`CN1CCC[C@H]1COc1nc(N2CCCOCC2)c2cc(Cl)c(-c3ccc(F)c4sc(N)nc34)c(F)c2n1` [Compound 147, 4-(6-chloro-8-fluoro-2-(((S)-1-methylpyrrolidin-2-yl)-methoxy)-4-(1,4-oxazepan-4-yl)quinazolin-7-yl)-7-fluorobenzo[d]thiazol-2-amine]: the IC50 (in experiment [1] (setting [2]); at wildtype Kras / hSOS1 (setting [2])) was less than 500 nM throughout.
`Nc1nc2c(-c3c(Cl)cc4c(N5[C@@H]6CC[C@H]5CNC6)nc(OC[C@@]56CCCN5C[C@H](F)C6)nc4c3F)ccc(F)c2s1` [Compound 301, 4-(4-((1R,5S)-3,8-diaza-bicyclo[3.2.1]octan-8-yl)-6-chloro-8-fluoro-2-(((2R,7aS)-2-fluorotetra-hydro-1H-pyrrolizin-7a(5H)-yl)methoxy)quinazolin-7-yl)-7-fluorobenzo[d]thiazol-2-amine]: the IC50 (in experiment [1] (compound nos. 301-306); on wildtype Kras / hSOS1 (compound nos. 301-306)) was less than 1500 nM in each case.
As to `CN1CCC[C@H]1COc1nc(N2CCNC(=O)CC2)c2cc(Cl)c(-c3cccc4sc(N)nc34)c(F)c2n1` [Compound 142, 1-(7-(2-aminobenzo[d]-thiazol-4-yl)-6-chloro-8-fluoro-2-(((S)-1-methyl-pyrrolidin-2-yl)methoxy)-quinazolin-4-yl)-1,4-diazepan-5-one], the IC50 (in experiment [1] (setting [2]); at wildtype Kras / hSOS1 (setting [2])) was less than 500 nM each time.
Turning to `Fc1c(Br)c(Cl)cc2c(N3CC4CCC(C3)N4)nc(OC[C@@]34CCCN3C[C@H](F)C4)nc12` [Compound 479, 4-(3,8-diazabicyclo[3.2.1]-octan-3-yl)-7-bromo-6-chloro-8-fluoro-2-(((2R,7aS)-2-fluorotetra-hydro-1H-pyrrolizin-7a(5H)-yl)methoxy)quin-azoline], the IC50 was more than 500 nM in experiment [1] (compound nos. 401-703) and less than 500 nM on wildtype Kras / hSOS1 (compound nos. 401-703).
In the case of `N#CC1CCCN(c2nc(OC[C@@]34CCCN3C[C@H](F)C4)nc3c(F)c(-c4ccc(F)c5sc(N)nc45)c(Cl)cc23)CC1` (stereo partly drawn) [Compound 433, 1-(7-(2-amino-7-fluoro-benzo[d]thiazol-4-yl)-6-chloro-8-fluoro-2-(((2R,7aS)-2-fluorotetra-hydro-1H-pyrrolizin-7a(5H)-yl)methoxy)quin-azolin-4-yl)azepane-4-carbonitrile], the IC50 (in experiment [1] (compound nos. 401-703); on wildtype Kras / hSOS1 (compound nos. 401-703)) was less than 500 nM each time.
Take `Nc1cccc(-c2ccc(O)cc2-c2c(Cl)cc3c(N4CC5CCC(C4)N5)nc(OCC45CCCN4CCC5)nc3c2F)c1` [Compound 652, 2-(4-(3,8-diazabicyclo-[3.2.1]octan-3-yl)-6-chloro-8-fluoro-2-((tetrahydro-1H-pyrrolizin-7a(5H)-yl)meth-oxy)quinazolin-7-yl)-3′-amino-[1,1′-biphenyl]-4-ol]: the 50% inhibitory concentration (IC50) (in experiment [1] (compound nos. 401-703); on wildtype Kras / hSOS1 (compound nos. 401-703)) was more than 500 nM in each case.
With `Nc1nc2c(-c3c(Cl)cc4c(N5CCCCC(F)(F)C5)nc(OCC56CCCN5CCC6)nc4c3F)ccc(F)c2s1` [Compound 117, 4-(6-chloro-4-(3,3-difluoro-azepan-1-yl)-8-fluoro-2-((tetrahydro-1H-pyrrolizin-7a(5H)-yl)methoxy)quin-azolin-7-yl)-7-fluorobenzo-[d]thiazol-2-amine], the IC50 (in experiment [1] (setting [2]); on wildtype Kras / hSOS1 (setting [2])) was less than 500 nM each time.
On to `Nc1nc2c(-c3c(Cl)cc4c(N5CC6CCC(CO)(C5)N6)nc(OC[C@@]56CCCN5C[C@H](F)C6)nc4c3F)ccc(F)c2s1` (stereo partly drawn) [Compound 518, (3-(7-(2-amino-7-fluoroben-zo-[d]thiazol-4-yl)-6-chloro-8-fluoro-2-(((2R,7aS)-2-fluorotetrahydro-1H-pyrrol-izin-7a(5H)-yl)methoxy)-quinazolin-4-yl)-3,8-diaza-bicyclo[3.2.1]octan-1-yl)-methanol], for which the IC50 in experiment [1] (compound nos. 401-703) was less than 500 nM; at wildtype Kras / hSOS1 (compound nos. 401-703), more than 500 nM.
Consider `Fc1c(-c2cccc3ncccc23)c(Cl)cc2c(N3CCCCCC3)nc(OCC34CCCN3CCC4)nc12` [Compound 540, 4-(azepan-1-yl)-6-chloro-8-fluoro-7-(quinolin-5-yl)-2-((tetrahydro-1H-pyrrolizin-7a(5H)-yl)methoxy)quin-azoline], for which the IC50 (in experiment [1] (compound nos. 401-703); at wildtype Kras / hSOS1 (compound nos. 401-703)) was more than 500 nM each time.
With `Nc1nc2c(-c3c(Cl)cc4c(N5CCNCC(F)(F)C5)nc(Oc5cccnc5C5CC5)nc4c3F)cccc2s1` [Compound 145, 4-(6-chloro-2-((2-cycloprop-ylpyridin-3-yl)oxy)-4-(6,6-difluoro-1,4-diazepan-1-yl)-8-fluoroquinazolin-7-yl)-benzo[d]thiazol-2-amine], the IC50 (in experiment [1] (setting [2]); on wildtype Kras / hSOS1 (setting [2])) was more than 500 nM each time.
Consider `Nc1nc2c(-c3c(Cl)cc4c(N5CCCOC(CO)C5)nc(OCC56CCCN5CCC6)nc4c3F)cccc2s1` (stereo not drawn) [Compound 465, (4-(7-(2-aminobenzo[d]-thiazol-4-yl)-6-chloro-8-fluoro-2-((tetrahydro-1H-pyrrolizin-7a(5H)-yl)meth-oxy)quinazolin-4-yl)-1,4-oxazepan-2-yl)methanol], for which the IC50 (in experiment [1] (compound nos. 401-703); at wildtype Kras / hSOS1 (compound nos. 401-703)) was less than 500 nM each time.
